The record followed here is US10342812B2, “Glycan-based drugs, therapies and biomarkers” (priority 2008, dated 2019).

Assay [1] deals with 2009H1N1 influenza virus (California strain). It counts as in vivo, chicken.
Assay [2] has as its system rhesus rotavirus (RRV). In words: Prevention of rotavirus infection in mouse pups with Neu5Ac, methionine, formula-1 (5.7). It counts as in vivo. To be noted: for Not sick (number) / Sick Rate(%): 20 μl oral at P1, RRV at P2; for Sick (number): 20 μl oral at P1, RRV at P2, 3 weeks; for Odds Ratio: vs saline.
Assay [3] is classed as in vivo, chicken.
For assay [4], the system named is A/PR/8/34(H1N1) influenza virus strain. In words: Treatment of influenza infection of newborn mice (15.2). The class given is in vivo, mouse. The conditions noted are these: virus at P5, i.p. treatment at day 2, 3, 4 and 5; kept 10 days. On the procedure: Four groups of newborn bulb/c pups were inoculated at day 5 (P5) via nasal and oral administration of 20 μl (microliter) of the A/PR/8/34(H1N1) influenza virus strain (titer: 1:256, diluted 200 times with saline); and were treated at day 2, 3, 4 and 5 via intraperitoneal injection with 100 μl of saline containing 1) saline alone (n=10); 2) 150 microgram of Neu5AcMe; 3) 30 μl of 2% diethyl disulfide plus 200 μg of the Neu5AcMe (n=10); and 4) 30 μl of 2% diethyl disulfide plus 200 μg of the Neu5Ac (n=10). Mice were kept for 10 days after treatment.

The subject of assay [5] is rhesus rotavirus (RRV). Nature of the assay: Prevention of rotavirus infection in mouse pups with methionine-Zn (8.1). It counts as in vivo.
Setting [6] is: pretreated at E16, virus next day.

With `CCSSCC` [Diethyl disulfide], in assay [1] (setting [6]), the “Not sick (number)” value came to 5, the “Sick (number)” value worked out at 1 and the “Sick Rate(%)” value stood at 17%. Moreover, the “Odds Ratio” value in assay [1] (vs saline) is 0.04.
For the molecule `CSCC[C@H](N)C(=O)O` [Metnionine, Methionine], in the assay with rhesus rotavirus (RRV) [2], the “Not sick (number)” value amounted to 9, the “Sick Rate(%)” value is reported as 25.0%, the “Sick (number)” value came out at 3 and the “Odds Ratio” value was found to be 0.07.
Turning to `CC(=O)N[C@H]1[C@H]([C@H](O)[C@H](O)CO)OC(O)(C(=O)O)C[C@@H]1O` (some centres unmarked) [Neu5Ac, N-Acetylneuraminic acid], in assay [3] (day 3, saline 87.5%), the “side effect of the H5N1 vaccine candidate (still sick)” value stood at 12.5%. For the same molecule, the “Odd Ratio” value in assay [3] (in vivo) was determined as 0.02. Also, the “sick chickens recovered and looked normal” value in assay [3] (in vivo, po) is 7/8. In the assay with rhesus rotavirus (RRV) [2], the “Not sick (number)” value came to 10, the “Sick Rate(%)” value is on record as 23.1%, the “Sick (number)” value came out at 3 and the “Odds Ratio” value was 0.07.
In assay [4], `COC(=O)[C@]1(O)CC(O)[C@@H](NC(C)=O)C(C(O)[C@H](O)CO)O1` (some centres unmarked) [Neu5AcMe, N-Acetylneuraminic acid methyl ester] displayed a pups survived of 50%.
With “Methionine-Zinc (Zn) complex [Metnionine-Zn]”, in the assay with rhesus rotavirus (RRV) [5] (20 μl oral at P1, RRV at P2), the “Not sick (number)” value came out at 6 and the “Sick Rate(%)” value is 14%. The “Sick (number)” value with rhesus rotavirus (RRV) [5] (20 μl oral at P1, RRV at P2, 3 weeks) is 1. Moreover, the “Odds Ratio” value in the assay on rhesus rotavirus (RRV) [5] (vs saline) is reported as 0.03.
